For one assay, the system named is Cyp7a1. Put plainly: Acute mouse PK/PD: Cyp7a1 gene expression in liver. The following applies: mouse PD, dose 3 mg/kg, 6 h. Format: in vivo. As for the experimental part: (§1) In Vivo Testing Example: Acute Mouse PK/PD
(§2) Male, C57BL6/NTac mice, weighing 25-28 g, are purchased from Taconic Labs (Hudson, N.Y.) and maintained on Teklad Global 18% Protein Rodent Diet (Harlan Laboratories). After 1 week acclimation, mice are sorted into groups based upon body weight. Mice are administered a single oral dose of vehicle or experimental compound. Systemic compound exposure is evaluated in plasma derived from blood collected via the submandibular vein at 1 hour post-dose, and at study termination (6 h). At study termination, the animals are euthanized and rapidly dissected. The medial lobe of the liver is divided, with one half being homogenized and analyzed for compound exposure, and the other half saved in RNAlater (Thermo-Fisher Scientific). The ileum is also dissected and preserved in RNAlater. Tissue samples in RNAlater are homogenized with MP Biomedicals' beads. RNA is extracted using the MagMax-96 Total RNA Isolation kit (Thermo-Fisher Scientific) according to the manufacturer's protocol. RNA Concentration is determined with the Nano-Drop 8000 Spectrophotometer (Thermo Fisher). Reverse transcription is done with Invitrogen's SuperScript® VILO cDNA Synthesis Kit according to the manufacturer's protocol. Real time PCR is done with Applied Biosystems' Taqman PCR master mixture according to the manufacturer's protocol. All primers are purchased from Thermo-Fisher Scientific. Mouse genes analyzed include Nr0b2 (which encodes the small heterodimer partner, SHP), Abcb11 (which encodes the bile salt excretion pump, BSEP), Cyp7a1, & Cyp8b1 in liver, and Fgf15, Fabp6 (which encodes ileal bile acid binding protein, I-BABP), Slc51a (which encodes organic solute transporter alpha subunit, OSTA), and Slc51b (which encodes organic solute transporter beta subunit, OSTB) in the ileum. The statistical significant changes in FGF15 gene expression are expressed as fold increase and CYP7A1 expression as a percent reduction relative to vehicle control.
T1 sequence (Q96RI1 262-486): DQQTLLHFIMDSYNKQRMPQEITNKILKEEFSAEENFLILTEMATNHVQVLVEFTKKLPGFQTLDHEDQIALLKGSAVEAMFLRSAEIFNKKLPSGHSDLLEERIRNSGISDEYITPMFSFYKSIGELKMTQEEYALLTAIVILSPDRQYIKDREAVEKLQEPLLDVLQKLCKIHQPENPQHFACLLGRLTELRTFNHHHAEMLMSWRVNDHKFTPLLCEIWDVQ
In the case of `O=C(O)c1cc(C(F)(F)F)c2cc(OCC34CCC(OCc5c(-c6c(Cl)cncc6Cl)noc5C5CC5)(CC3)CC4)ccc2n1` [Example 101, 6-((4-((5-cyclopropyl-3-(3,5-dichloropyridin-4-yl)isoxazol-4-yl)methoxy)bicyclo[2.2.2]octan-1-yl)methoxy)-4-(trifluoromethyl)quinoline-2-carboxylic acid], the “Cyp7a1 (fold change@ 6 h relative to Vehicle)” value is reported as 0.06 fold change.

Still in this assay, the particulars now being: mouse PD, dose 30 mg/kg, 6 h.
For the compound `O=C(O)c1cccc(-c2noc(C34CCC(OCc5c(-c6c(Cl)cccc6Cl)noc5C5CC5)(CC3)CC4)n2)c1` [Example 27], the “Cyp7a1 (fold change@ 6 h relative to Vehicle)” value was found to be 0.10 fold change.

Staying with this assay, now noted: mouse, 3 mg/kg single oral dose, @ 6 h, liver.
With `CN1CCN(c2nc(C(=O)O)cc3ccc(/C=C/C45CCC(OCc6c(-c7c(Cl)cncc7Cl)noc6C6CC6)(CC4)CC5)cc23)CC1` [Example 629], the “Mouse in vivo Cyp7a1 (printed Cypa7a1), change relative to vehicle” value is given as −97%.

The target of another assay is T1, FXR (Homo sapiens (Human), UniProt Q96RI1). Put plainly: transient human FXR/Gal4-luciferase reporter assay. The format is cell-based. The following applies: Gal4-hFXR LBD fusion in HEK293 reporter cells; relative to 8 μM GW-4064. As for the experimental part:
The exemplified compounds of the present invention were tested in the transient human FXR/Gal4-luciferase reporter assay, and assay results were described in the EXAMPLES section hereinbefore.
A Gal4-hFXR fusion construct reporter system was used as the primary assay to characterize compound activity. A construct including 5 copies of the Gal4 promoter response element upstream of a firefly luciferase reporter cDNA was stably expressed in HEK293 cells. This reporter cell line was maintained in Dulbecco's Modified Eagle's medium (DMEM; Gibco) supplemented with 1% penicillin-streptomycin (P/S) solution, 500 μg/ml Zeocin and 10% charcoal/dextran-treated fetal bovine serum (cs-FBS) at 37° C. in a humidified 5% CO2 atmosphere. Another plasmid was constructed in which the human cytomegalovirus promoter in the pcDNA3.1 vector directs the expression of the cDNA encoding a fusion protein comprised of the DNA binding domain from the Gal4 transcription factor fused to the ligand binding domain from human FXR.
The day prior to transfection, the reporter cells in culture are detached from the plate with trypsin and plated into a T75 flask at a sufficient density to achieve approximately 90% confluence the next morning. The transfection reagents are prepared by separately diluting 25 μg of the pcDNA3.1-Gal4-FXR plasmid into 1.87 mL of Opti-MEM (Thermo-Fisher), and 40 μL of Lipofectamine 2000 (Thermo-Fisher) into 1.87 mL of Opti-MEM, and then adding the diluted DNA solution into the diluted Lipofectamine 2000 solution and incubating at room temperature for 15-20 minutes. The mixture is further diluted with 10 mL of a solution comprised of DMEM, 10% cs-FBS, and 1% P/S immediately prior to transferring to the cells. The maintenance culture media is aspirated from the cells and the final transfection mixture is added before the cells are incubated overnight at 37° C. in a humidified 5% CO2 atmosphere. This protocol can be scaled up, and the transiently transfected cells can be cryopreserved in an assay-ready format.
For compound testing, 100 nL of the compounds (serial dilutions in DMSO) are dispensed with an Echo acoustic dispenser (Labcyte) into the wells of a Corning/Costar clear bottom 384-well white plate. The transfected cells are harvested, counted, and diluted such that 10-25,000 cells in 25 μL are plated into each well of the 384-well compound assay plate. The compound-treated cells are incubated overnight at 37° C. in a humidified 5% CO2 atmosphere. The next morning 25 μL of Steady-Glo (Promega) are added to each well of the plate, the mixture is incubated for 15 min. with shaking, and luminescence is measured on an Envision (Perkin Elmer) plate reader. Background counts from cells treated with DMSO alone are subtracted from all raw counts, and the corrected values are converted to a percentage of the control response attained with 8 μM GW-4064.
`O=C(O)Cc1ccc(/C=C/C23CCC(OCc4c(-c5c(Cl)cncc5Cl)noc4C4CC4)(CC2)CC3)cn1` [Example 596] came in with an EC50 of 1350 nM.
The same measure, in the same setting: the value for `Cn1c(C(=O)O)cc2c(/C=C/C34CCC(OCc5c(-c6c(Cl)cncc6Cl)noc5C5CC5)(CC3)CC4)cccc21` [Example 597] was 208 nM.
Consider `CCOc1cc(C(=O)O)nc2ccc(/C=C/C34CCC(OCc5c(-c6c(Cl)cncc6Cl)noc5C5CC5)(CC3)CC4)cc12` [Example 598], for which the response was half-maximal at 11 nM (EC50).
With `O=C(O)c1cc2ccc(/C=C/C34CCC(OCc5c(-c6c(Cl)cncc6Cl)noc5C5CC5)(CC3)CC4)cc2c(Cl)n1` [Example 599], the EC50 worked out at 15 nM.
`O=C(O)Cc1cccc(/C=C/C23CCC(OCc4c(-c5c(Cl)cncc5Cl)noc4C4CC4)(CC2)CC3)c1` [Example 600] registered an EC50 of 2040 nM.
With `COCCCOc1nc(C(=O)O)cc2ccc(/C=C/C34CCC(OCc5c(-c6c(Cl)cncc6Cl)noc5C5CC5)(CC3)CC4)cc12` [Example 601], the EC50 is 18 nM.
In turn, `O=C(O)Cc1ccc(/C=C/C23CCC(OCc4c(-c5c(Cl)cncc5Cl)noc4C4CC4)(CC2)CC3)c(F)c1` [Example 602] displayed an EC50 of 81 nM.
`O=C(O)c1cc2ccc(/C=C/C34CCC(OCc5c(-c6c(Cl)cncc6Cl)noc5C5CC5)(CC3)CC4)cc2c(N2CCOCC2)n1` [Example 603] showed an EC50 of 18 nM.
`CCOc1nc(C(=O)O)cc2ccc(/C=C/C34CCC(OCc5c(-c6c(Cl)cncc6Cl)noc5C5CC5)(CC3)CC4)cc12` [Example 604] yielded a half-maximal effective concentration (EC50) of 44.1 nM.
Same read-out and setting: as for `COc1ccc(/C=C/C23CCC(OCc4c(-c5c(Cl)cncc5Cl)noc4C4CC4)(CC2)CC3)cc1CCC(=O)O` [Example 605], the figure is 432 nM; as for `O=C(O)CCc1ccc(/C=C/C23CCC(OCc4c(-c5c(Cl)cncc5Cl)noc4C4CC4)(CC2)CC3)cc1` [Example 606], 160 nM.
On the same count and under the same terms, the value for `O=C(O)CCc1ccc(/C=C/C23CCC(OCc4c(-c5c(Cl)cncc5Cl)noc4C4CC4)(CC2)CC3)cc1F` [Example 607] was 269 nM.
Consider `O=C(O)COc1ccc(/C=C/C23CCC(OCc4c(-c5c(Cl)cncc5Cl)noc4C4CC4)(CC2)CC3)c(F)c1` [Example 608], for which the EC50 is 1030 nM.
On the same count and under the same terms, as for `COC1CN(c2nc(C(=O)O)cc3ccc(/C=C/C45CCC(OCc6c(-c7c(Cl)cncc7Cl)noc6C6CC6)(CC4)CC5)cc23)C1` [Example 609], the figure is 67 nM; as for `O=C(O)c1cc2ccc(/C=C/C34CCC(OCc5c(-c6c(Cl)cncc6Cl)noc5C5CC5)(CC3)CC4)cc2c(N2CC(O)C2)n1` [Example 610], 77 nM.
In turn, `O=C(O)c1cc2ccc(/C=C/C34CCC(OCc5c(-c6c(Cl)cncc6Cl)noc5C5CC5)(CC3)CC4)cc2c(N2CC(F)C2)n1` [Example 611] showed an EC50 of 22 nM.
Regarding `O=C(O)c1cc2ccc(/C=C/C34CCC(OCc5c(-c6c(Cl)cncc6Cl)noc5C5CC5)(CC3)CC4)cc2c(N2CC(CO)C2)n1` [Example 612], the midpoint of the response, the EC50, lay at 108 nM.
`O=C(O)c1cc2ccc(/C=C/C34CCC(OCc5c(-c6c(Cl)cncc6Cl)noc5C5CC5)(CC3)CC4)cc2c(OC2CCC2)n1` [Example 613] gave an EC50 of 298 nM.
`O=C(O)c1cc2ccc(/C=C/C34CCC(OCc5c(-c6c(Cl)cncc6Cl)noc5C5CC5)(CC3)CC4)cc2c(OC2CC2)n1` [Example 614] came in with an EC50 of 51 nM.
The compound `O=C(O)c1cc2ccc(/C=C/C34CCC(OCc5c(-c6c(Cl)cncc6Cl)noc5C5CC5)(CC3)CC4)cc2c(OC2CCCC2)n1` [Example 615] had an EC50 of 52 nM.
`O=C(O)COc1ccc(/C=C/C23CCC(OCc4c(-c5c(Cl)cncc5Cl)noc4C4CC4)(CC2)CC3)cn1` [Example 616] yielded an EC50 of 3040 nM.
As for `O=C(O)COc1cc(/C=C/C23CCC(OCc4c(-c5c(Cl)cncc5Cl)noc4C4CC4)(CC2)CC3)ccn1` [Example 617], the EC50 was determined as 1460 nM.
For `CNC(=O)Cc1ccc(/C=C/C23CCC(OCc4c(-c5c(Cl)cncc5Cl)noc4C4CC4)(CC2)CC3)cc1` [Example 618], the half-maximal effective concentration (EC50) came to 393 nM.
Regarding `Clc1cncc(Cl)c1-c1noc(C2CC2)c1COC12CCC(/C=C/c3ccc(Cc4nn[nH]n4)cc3)(CC1)CC2` [Example 619], the response was half-maximal at 213 nM (EC50).
Still for that read-out and setting: the value for `CN(C)C(=O)Cc1ccc(/C=C/C23CCC(OCc4c(-c5c(Cl)cncc5Cl)noc4C4CC4)(CC2)CC3)cc1` [Example 620] was 382 nM.
Compound `O=C(O)Cc1ccc(/C=C/C23CCC(OCc4c(-c5c(Cl)cncc5Cl)noc4C4CC4)(CC2)CC3)c(C(F)(F)F)c1` [Example 621] came in with an EC50 of 43 nM.
The same measure, in the same setting: the value for `O=C(O)COCc1ccc(/C=C/C23CCC(OCc4c(-c5c(Cl)cncc5Cl)noc4C4CC4)(CC2)CC3)cc1` [Example 622] was 176 nM; that for `O=C(O)CCc1cccc(/C=C/C23CCC(OCc4c(-c5c(Cl)cncc5Cl)noc4C4CC4)(CC2)CC3)c1` [Example 623] was 843 nM.
Take `O=C(O)CCc1cc(/C=C/C23CCC(OCc4c(-c5c(Cl)cncc5Cl)noc4C4CC4)(CC2)CC3)ccc1OCC(F)F` [Example 624]: it took 438 nM to reach a half-maximal effect (EC50).
With `O=C(O)c1ccc(/C=C/C23CCC(OCc4c(-c5c(Cl)cncc5Cl)noc4C4CC4)(CC2)CC3)cc1` [Example 625], the EC50 was determined as 350 nM.
`O=C(O)c1cc(/C=C/C23CCC(OCc4c(-c5c(Cl)cncc5Cl)noc4C4CC4)(CC2)CC3)ccn1` [Example 626] gave an EC50 of 879 nM.
Regarding `O=C(O)c1cncc(/C=C/C23CCC(OCc4c(-c5c(Cl)cncc5Cl)noc4C4CC4)(CC2)CC3)c1` [Example 627], the EC50 was found to be 1150 nM.
`O=C(O)c1csc(-c2ccc(/C=C/C34CCC(OCc5c(-c6c(Cl)cncc6Cl)noc5C5CC5)(CC3)CC4)cc2)n1` [Example 628] returned a 50% effective concentration (EC50) of 72 nM.
As to `CN1CCN(c2nc(C(=O)O)cc3ccc(/C=C/C45CCC(OCc6c(-c7c(Cl)cncc7Cl)noc6C6CC6)(CC4)CC5)cc23)CC1` [Example 629], the response was half-maximal at 35 nM (EC50).

Another assay deals with T1, FXR. Nature of the assay: FXR EC50 (FXR agonist activity reported with each example). The format is cell-based.
Conditions: not given
Take `O=C(O)c1cc(C(F)(F)F)c2cc(OCC34CCC(OCc5c(-c6c(Cl)cncc6Cl)noc5C5CC5)(CC3)CC4)ccc2n1` [Example 101, 6-((4-((5-cyclopropyl-3-(3,5-dichloropyridin-4-yl)isoxazol-4-yl)methoxy)bicyclo[2.2.2]octan-1-yl)methoxy)-4-(trifluoromethyl)quinoline-2-carboxylic acid]: it took 8 nM to reach a half-maximal effect (EC50).

The subject of a further assay is Fgf15. Nature of the assay: Acute mouse PK/PD: Fgf15 gene expression in ileum. The format is in vivo. The following applies: mouse PD, dose 3 mg/kg, 6 h. The protocol: as §1, §2
In the case of `O=C(O)c1cc(C(F)(F)F)c2cc(OCC34CCC(OCc5c(-c6c(Cl)cncc6Cl)noc5C5CC5)(CC3)CC4)ccc2n1` [Example 101, 6-((4-((5-cyclopropyl-3-(3,5-dichloropyridin-4-yl)isoxazol-4-yl)methoxy)bicyclo[2.2.2]octan-1-yl)methoxy)-4-(trifluoromethyl)quinoline-2-carboxylic acid], the “Fgf15 (fold change@ 6 h relative to Vehicle)” value came to 21 fold change.

The assay is the same for the next values; noted with them: mouse PD, dose 30 mg/kg, 6 h.
For `O=C(O)c1cccc(-c2noc(C34CCC(OCc5c(-c6c(Cl)cccc6Cl)noc5C5CC5)(CC3)CC4)n2)c1` [Example 27], the “Fgf15 (fold change@ 6 h relative to Vehicle)” value came out at 2.8 fold change.

Still in this assay, the particulars now being: mouse, 3 mg/kg single oral dose, @ 6 h, ileum.
In the case of `CN1CCN(c2nc(C(=O)O)cc3ccc(/C=C/C45CCC(OCc6c(-c7c(Cl)cncc7Cl)noc6C6CC6)(CC4)CC5)cc23)CC1` [Example 629], the “Mouse in vivo Fgf15 (printed Ffg15), fold increase relative to vehicle” value is reported as “+7.1 x”.

One may read the EC50 as the midpoint of the concentration-response curve.
